Non-standard residues stand in square brackets, D forms with d. Residues, ends and D or L forms follow the SMILES beside them. Hyp = O=C(O)[C@@H]1C[C@@H](O)CN1
Legend:
Assay type in all cases: biochemical
NR2D = biological target: T1, NR2D (Rattus norvegicus, UniProt Q62645); test: [3H]MK-801 potentiation assay, NR2D; conditions: for NR2D Activity % max glycine: relative to stimulation by 1 mM glycine and 50 μM glutamate
T1 construct: corresponding to 200 μg of rat cortical membrane extract protein in each reaction; from tissue; host or cells: rat telencephalon (frontal cortex and hippocampus), male Sprague-Dawley
T1 sequence (Q62645 28-1323, other chains not shown): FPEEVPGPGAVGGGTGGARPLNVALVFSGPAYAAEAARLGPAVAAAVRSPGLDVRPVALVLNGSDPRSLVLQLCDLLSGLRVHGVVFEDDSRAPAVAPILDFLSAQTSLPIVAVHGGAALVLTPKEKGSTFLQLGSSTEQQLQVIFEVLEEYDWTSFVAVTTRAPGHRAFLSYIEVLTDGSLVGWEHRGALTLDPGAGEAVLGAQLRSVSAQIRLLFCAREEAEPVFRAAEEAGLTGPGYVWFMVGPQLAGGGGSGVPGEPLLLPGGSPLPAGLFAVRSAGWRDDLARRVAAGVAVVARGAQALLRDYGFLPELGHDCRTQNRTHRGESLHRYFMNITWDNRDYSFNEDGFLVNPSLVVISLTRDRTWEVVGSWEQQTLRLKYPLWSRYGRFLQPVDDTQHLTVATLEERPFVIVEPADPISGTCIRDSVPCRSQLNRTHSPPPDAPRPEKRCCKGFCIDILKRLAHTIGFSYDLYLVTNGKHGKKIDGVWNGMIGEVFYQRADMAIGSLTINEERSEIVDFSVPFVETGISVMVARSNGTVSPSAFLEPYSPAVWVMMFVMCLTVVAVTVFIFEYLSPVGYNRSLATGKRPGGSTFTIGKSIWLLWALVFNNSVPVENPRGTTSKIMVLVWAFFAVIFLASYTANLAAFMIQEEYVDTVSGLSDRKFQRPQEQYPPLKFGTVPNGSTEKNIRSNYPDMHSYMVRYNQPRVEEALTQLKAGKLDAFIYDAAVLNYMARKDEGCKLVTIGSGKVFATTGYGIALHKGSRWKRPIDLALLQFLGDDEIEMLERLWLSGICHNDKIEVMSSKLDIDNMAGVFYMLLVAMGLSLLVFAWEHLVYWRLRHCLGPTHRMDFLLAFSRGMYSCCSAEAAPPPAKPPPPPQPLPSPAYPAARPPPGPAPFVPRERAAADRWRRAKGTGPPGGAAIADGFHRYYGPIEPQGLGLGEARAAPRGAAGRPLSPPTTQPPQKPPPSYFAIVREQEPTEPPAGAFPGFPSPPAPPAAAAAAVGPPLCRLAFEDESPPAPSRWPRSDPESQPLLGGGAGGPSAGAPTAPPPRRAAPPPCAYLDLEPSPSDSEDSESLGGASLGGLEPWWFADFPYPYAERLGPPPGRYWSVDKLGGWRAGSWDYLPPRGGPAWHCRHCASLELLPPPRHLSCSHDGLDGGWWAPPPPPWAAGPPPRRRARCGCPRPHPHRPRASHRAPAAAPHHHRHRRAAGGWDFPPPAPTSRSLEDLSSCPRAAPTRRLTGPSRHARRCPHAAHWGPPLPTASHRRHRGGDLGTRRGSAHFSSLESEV

NR2A = biological target: T2, NR2A (Rattus norvegicus, UniProt Q00959); test: [3H]MK-801 potentiation assay, NR2A
T2 construct: corresponding to 200 μg of rat cortical membrane extract protein in each reaction; from tissue; host or cells: rat telencephalon (frontal cortex and hippocampus), male Sprague-Dawley
T2 sequence (Q00959 23-1464, other chains not shown): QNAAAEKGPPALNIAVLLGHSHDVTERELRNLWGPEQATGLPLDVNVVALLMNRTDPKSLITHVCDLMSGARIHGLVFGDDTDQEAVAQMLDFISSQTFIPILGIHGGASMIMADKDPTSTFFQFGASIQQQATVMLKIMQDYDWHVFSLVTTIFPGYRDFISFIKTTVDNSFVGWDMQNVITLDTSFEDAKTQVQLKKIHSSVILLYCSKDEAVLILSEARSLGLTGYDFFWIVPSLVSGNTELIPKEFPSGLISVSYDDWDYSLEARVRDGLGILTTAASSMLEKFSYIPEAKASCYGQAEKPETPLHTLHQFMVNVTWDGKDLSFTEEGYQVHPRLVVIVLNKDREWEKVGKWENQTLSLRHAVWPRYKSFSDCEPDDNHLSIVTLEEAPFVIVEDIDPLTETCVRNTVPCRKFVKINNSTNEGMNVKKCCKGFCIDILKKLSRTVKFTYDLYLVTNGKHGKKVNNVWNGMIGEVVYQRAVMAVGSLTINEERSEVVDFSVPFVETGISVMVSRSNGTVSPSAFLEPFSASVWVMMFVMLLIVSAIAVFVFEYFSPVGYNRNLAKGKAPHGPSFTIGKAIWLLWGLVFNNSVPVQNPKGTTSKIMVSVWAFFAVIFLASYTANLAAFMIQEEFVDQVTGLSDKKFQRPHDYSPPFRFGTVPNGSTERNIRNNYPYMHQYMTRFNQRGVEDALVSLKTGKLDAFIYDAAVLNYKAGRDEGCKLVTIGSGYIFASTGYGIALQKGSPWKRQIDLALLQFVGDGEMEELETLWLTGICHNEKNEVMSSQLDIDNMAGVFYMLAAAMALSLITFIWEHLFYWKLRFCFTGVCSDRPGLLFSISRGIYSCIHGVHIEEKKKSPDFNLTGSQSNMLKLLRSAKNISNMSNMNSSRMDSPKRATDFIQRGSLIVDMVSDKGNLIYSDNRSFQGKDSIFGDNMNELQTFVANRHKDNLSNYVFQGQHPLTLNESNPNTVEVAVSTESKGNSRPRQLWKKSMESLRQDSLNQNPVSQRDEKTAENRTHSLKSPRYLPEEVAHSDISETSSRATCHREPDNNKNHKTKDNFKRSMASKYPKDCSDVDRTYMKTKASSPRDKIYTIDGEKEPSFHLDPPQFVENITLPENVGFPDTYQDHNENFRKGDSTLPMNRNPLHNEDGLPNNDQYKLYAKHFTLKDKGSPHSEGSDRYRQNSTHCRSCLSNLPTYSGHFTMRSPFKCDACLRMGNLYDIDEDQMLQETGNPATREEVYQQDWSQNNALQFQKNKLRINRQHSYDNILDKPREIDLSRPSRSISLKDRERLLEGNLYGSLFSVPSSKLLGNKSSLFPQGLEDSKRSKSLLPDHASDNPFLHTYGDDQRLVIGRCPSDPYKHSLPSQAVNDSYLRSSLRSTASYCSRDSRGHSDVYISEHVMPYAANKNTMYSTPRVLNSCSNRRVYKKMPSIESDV
Procedure: Briefly, tissue that had been stored at −80° C. was homogenized in ice cold 10 mM Tris (pH7.4 at 4° C.) using a Brinkman Polytron and then pelleted by centrifugation at 51,500 g for 20 min. The resulting supernatant was discarded and the membranes were homogenized and washed an additional 3×. Pellets were then resuspended in 5 mM EDTA/15 mM Tris (pH7.4) and incubated for 1 hr at 37° C. The membrane suspensions were then pelleted by centrifugation at 51,500 g for 20 min and stored at −80° C. overnight. The pellets were resuspended in 10 mM Tris HCl (pH7.4 at 4° C.) and homogenized and washed an additional 7 times and frozen at […] until assay.
Briefly, 300 μg of membrane extract protein were preincubated for 15 minutes at 25° C. in the presence of a saturating concentration of glutamate (50 μM) and varying concentrations of GLYX-13. […] Zero levels were determined in the absence of any glycine ligand in the presence of 30 μM dichlorokyneurenic acid. […]
The origin of aberrantly high background glycine, or bioactive plastic leachates that act like glycine, can stemrom either the water itself, the LC/MS grade water filter used, or a result of time-dependent leaching from plasticware (including storage tubes, beakers, pipette tips). […] Absolute background percentages are calculated. […]
Samples must wait at least 3 hours prior to quantitation in the scintillation counter. […]

NR2B = biological target: T3, NR2B (Rattus norvegicus, UniProt Q00960); test: [3H]MK-801 potentiation assay, NR2B
T3 construct: corresponding to 200 μg of rat cortical membrane extract protein in each reaction; from tissue; host or cells: rat telencephalon (frontal cortex and hippocampus), male Sprague-Dawley
T3 sequence (Q00960 27-1482, other chains not shown): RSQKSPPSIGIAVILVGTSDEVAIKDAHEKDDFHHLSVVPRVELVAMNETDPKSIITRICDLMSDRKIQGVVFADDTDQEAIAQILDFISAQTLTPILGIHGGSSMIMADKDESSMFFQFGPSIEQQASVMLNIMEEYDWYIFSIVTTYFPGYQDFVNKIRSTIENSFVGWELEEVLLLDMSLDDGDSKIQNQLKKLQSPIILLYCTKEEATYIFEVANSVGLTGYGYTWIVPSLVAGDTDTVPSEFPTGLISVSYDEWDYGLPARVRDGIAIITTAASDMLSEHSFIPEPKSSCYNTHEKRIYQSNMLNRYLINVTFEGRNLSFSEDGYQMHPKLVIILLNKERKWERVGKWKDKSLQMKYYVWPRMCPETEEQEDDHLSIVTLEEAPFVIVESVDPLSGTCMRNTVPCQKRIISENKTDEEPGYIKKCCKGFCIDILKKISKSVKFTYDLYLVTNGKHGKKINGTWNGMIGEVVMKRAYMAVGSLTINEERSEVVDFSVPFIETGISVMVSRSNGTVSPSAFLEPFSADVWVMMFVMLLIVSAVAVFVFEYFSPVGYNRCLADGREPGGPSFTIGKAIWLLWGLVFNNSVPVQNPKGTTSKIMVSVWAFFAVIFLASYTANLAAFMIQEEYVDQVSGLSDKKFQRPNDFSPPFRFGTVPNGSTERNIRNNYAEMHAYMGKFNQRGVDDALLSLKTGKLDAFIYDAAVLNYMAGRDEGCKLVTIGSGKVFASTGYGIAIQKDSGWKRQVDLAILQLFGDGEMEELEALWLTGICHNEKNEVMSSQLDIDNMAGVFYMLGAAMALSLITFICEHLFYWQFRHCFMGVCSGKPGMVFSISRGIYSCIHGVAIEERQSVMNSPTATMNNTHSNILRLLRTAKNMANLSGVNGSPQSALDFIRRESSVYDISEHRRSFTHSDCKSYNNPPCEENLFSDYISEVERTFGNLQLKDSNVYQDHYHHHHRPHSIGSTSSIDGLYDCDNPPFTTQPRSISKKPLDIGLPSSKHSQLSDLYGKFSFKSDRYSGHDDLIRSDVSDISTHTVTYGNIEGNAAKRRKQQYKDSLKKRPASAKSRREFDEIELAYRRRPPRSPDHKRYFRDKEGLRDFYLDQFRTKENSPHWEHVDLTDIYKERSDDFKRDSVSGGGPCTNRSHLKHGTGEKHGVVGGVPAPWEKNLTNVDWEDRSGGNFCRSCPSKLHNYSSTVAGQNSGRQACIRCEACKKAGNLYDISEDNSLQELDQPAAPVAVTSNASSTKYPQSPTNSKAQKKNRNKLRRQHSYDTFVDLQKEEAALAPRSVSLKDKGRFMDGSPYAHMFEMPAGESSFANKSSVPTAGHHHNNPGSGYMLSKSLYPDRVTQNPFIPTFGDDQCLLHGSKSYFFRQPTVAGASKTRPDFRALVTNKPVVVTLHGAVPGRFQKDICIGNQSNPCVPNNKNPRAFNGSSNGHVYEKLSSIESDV
Procedure: Crude synaptic membranes were prepared using rat telencephalon (frontal cortex and hippocampus tissue) from male Sprague-Dawley rats and extensively washed using procedures modified from the Moskal et al. 2001 Review; The use of antibody engineering to create novel drugs that target N-methyl-D-aspartate receptors, Current Drug Targets, 2(3):331-45. Briefly, tissue that had been stored at −80° C. was homogenized in ice cold 10 mM Tris (pH7.4 at 4° C.) using a Brinkman Polytron and then pelleted by centrifugation at 51,500 g for 20 min. The resulting supernatant was discarded and the membranes were homogenized and washed an additional 3×. […]
Functional glycine site agonist effects were measured using an a [^3H]MK-801 potentiation assay (see Urwyler S, Floersheim P, Roy B L, Koller M. J Med Chem. (2009) 52(16):5093-107). […] Zero levels were determined in the absence of any glycine ligand in the presence of 30 μM dichlorokyneurenic acid. The % maximal [^3H]MK-801 binding was calculated relative to stimulation measured in the presence of 1 mM glycine and 50 μM glutamate. […]
For compounds with relatively low activity (e.g., GLYX-13), the identification and elimination of background glycine levels can have a significant effect on the interpretation of this assay. […] Absolute background percentages are calculated. […]

NR2C [1] = biological target: T4, NR2C (Rattus norvegicus, UniProt Q00961); test: [3H]MK-801 potentiation assay, NR2C; conditions: relative to stimulation by 1 mM glycine and 50 μM glutamate
T4 construct: corresponding to 200 μg of rat cortical membrane extract protein in each reaction; from tissue; host or cells: rat telencephalon (frontal cortex and hippocampus), male Sprague-Dawley

NR2C [2] = biological target: T5, NR2C (Rattus norvegicus, UniProt P35439+Q00961); test: [3H]MK-801 potentiation assay, NR2C; conditions: in presence of 50 μM glutamate; read-out: NR2C Potency logM (converted)
T5 construct: corresponding to 200 μg of rat cortical membrane extract protein in each reaction; from tissue; host or cells: rat telencephalon (frontal cortex and hippocampus), male Sprague-Dawley

[3] = relative to stimulation by 1 mM glycine and 50 μM glutamate

NR2B Potency logM (NR2B; in presence of 50 μM glutamate)	NR2B Activity % max glycine (NR2B; [3])	NR2C Activity % max glycine (NR2C [1])	EC50 (NR2C [2])	EC50 (NR2D; in presence of 50 μM glutamate, read-out: NR2D Potency logM (converted))	Compound	NR2D Potency logM (NR2D; in presence of 50 μM glutamate)	NR2D Activity % max glycine (NR2D)	EC50 (NR2A; in presence of 50 μM glutamate, read-out: NR2A Potency logM (converted))	NR2A Activity % max glycine (NR2A; [3])
–	–	–	–	–	CC(=O)OC1C[C@@H](C(=O)N[C@@H](Cc2c[nH]c3ccccc23)C(=O)N[C@H](C(N)=O)[C@@H](C)O)N(C(=O)[C@@H](N)[C@@H](C)O)C1 (stereo partly shown) [Compound A-3]	−13.68 logM	35.17 % max glycine	17.4 pM	58.25 % max glycine
−13.86 logM	29.53 % max glycine	38.75 % max glycine	2.09 pM	2.34 pM	C[C@@H](O)[C@H](NC(=O)[C@H](Cc1c[nH]c2ccccc12)NC(=O)[C@@H]1C[C@@H](O)CN1)C(N)=O [Compound A-5] (H-[Hyp]-Trp-Thr-NH2)	–	41.34 % max glycine	–	–

From US9994614B2, “N-methyl-D-aspartate receptor modulators and methods of making and using same” (Naurex, Inc., priority 2014, dated 2018)
